One assay concerns NIH/3T3 cell adhesion. Put plainly: Cell adhesion assay (xCELLigence impedance). The class given is cell-based. Particulars: 10^-5 M. How it is done: NIH3T3cells (10000/well) were seeded in a 96 well plate microtiter xCELLigence assay plate (E-Plate) (ACEA Biosciences Inc.) and placed on the Real-time xCELLigence Cell Analyzer (Roche Applied Science) platform at 37°C to measure the “cell index” every 5 min for a period of 6 h. The cell index unit is defined as (Rn − Rb)/15. Rn is the cell electrode impedance of the well when it contains cells. Rb is the background impedance of the well with the media alone.
Supplementary Fig. 3: Example of one pharmacophore model used for virtual screening. (a) The pharmacophore model shown was created based on RAC1 (grey) and NSC23766 (orange) interaction. […] (b) Impact of different screening molecules (10^-5 M) on NIH/3T3 cell adhesion (xCELLingence Real-time cellanalysis, Agilent), migration (CYTOO Mobility plates) and proliferation (xCELLingence Real-time cell analysis, Agilent) .The level of RAC activation is determinedby the detection of RAC-GTP (pull-down assay) in NIH/3T3 cell treated with EGF (10 ng/mL) and the differentmolecules and normalize to the level of RAC activity measuredin the presenceof the reference RAC inhibitor EHT1864.
Supplementary Fig. 4: A41 inhibits RAC-dependent cell functions. (a) Representative records of single NIH/3T3 cell migration on micropatterned fibronectin lines (CYTOO Mobility plates) in the absence (Control)and presenceA41 at 10^-5 M (left panel) and corresponding quantification of migration speed (right panel) (scale bar: 20µm). […] (b) Typical curves showing the cell index representing the adhesion of NIH/3T3 fibroblast (xCELLingence Real-time cell analysis, Agilent) under control condition (Control) and pre-treated with 10 µM A41 or NSC23766 (left panel) and corresponding quantification of cell adhesion speed (right panel). […]

Another assay deals with Wee1(h) (Homo sapiens, UniProt P30291). Put plainly: Kinase Profiler. The class given is biochemical.
The target in the next assay is CHK2(R145W)(h) (Homo sapiens, UniProt O96017, R145W). Put plainly: Kinase Profiler. The class given is biochemical.
CHK2(R145W)(h), sequence (O96017 whole entry R145W): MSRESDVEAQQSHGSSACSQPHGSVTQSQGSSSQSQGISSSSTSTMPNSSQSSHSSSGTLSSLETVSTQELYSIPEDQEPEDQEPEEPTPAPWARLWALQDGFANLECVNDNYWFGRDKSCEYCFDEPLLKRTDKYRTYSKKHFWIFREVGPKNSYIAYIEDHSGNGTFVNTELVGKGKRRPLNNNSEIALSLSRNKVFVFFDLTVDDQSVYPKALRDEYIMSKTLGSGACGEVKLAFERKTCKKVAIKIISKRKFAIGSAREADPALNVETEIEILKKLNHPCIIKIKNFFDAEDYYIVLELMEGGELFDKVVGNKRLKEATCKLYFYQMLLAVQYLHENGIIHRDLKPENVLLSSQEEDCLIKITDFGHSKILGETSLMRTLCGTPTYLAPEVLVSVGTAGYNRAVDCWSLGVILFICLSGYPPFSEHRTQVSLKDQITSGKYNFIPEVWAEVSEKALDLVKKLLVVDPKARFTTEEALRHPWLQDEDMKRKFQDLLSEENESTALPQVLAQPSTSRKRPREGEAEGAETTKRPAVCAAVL
The target in another assay is ULK3(h) (Homo sapiens, UniProt Q6PHR2). Put plainly: Kinase Profiler. The class given is biochemical.
The next assay deals with Abl(h) (Homo sapiens, UniProt P00519). Put plainly: Kinase Profiler. The class given is biochemical.
The target of a further assay is CDK3/cyclinE(h) (Homo sapiens, UniProt Q00526). Put plainly: Kinase Profiler. The class given is biochemical.
The target in the next assay is ATR/ATRIP(h) (Homo sapiens, UniProt Q13535). Put plainly: Kinase Profiler. The class given is biochemical.
ATR/ATRIP(h), sequence (Q13535 whole entry): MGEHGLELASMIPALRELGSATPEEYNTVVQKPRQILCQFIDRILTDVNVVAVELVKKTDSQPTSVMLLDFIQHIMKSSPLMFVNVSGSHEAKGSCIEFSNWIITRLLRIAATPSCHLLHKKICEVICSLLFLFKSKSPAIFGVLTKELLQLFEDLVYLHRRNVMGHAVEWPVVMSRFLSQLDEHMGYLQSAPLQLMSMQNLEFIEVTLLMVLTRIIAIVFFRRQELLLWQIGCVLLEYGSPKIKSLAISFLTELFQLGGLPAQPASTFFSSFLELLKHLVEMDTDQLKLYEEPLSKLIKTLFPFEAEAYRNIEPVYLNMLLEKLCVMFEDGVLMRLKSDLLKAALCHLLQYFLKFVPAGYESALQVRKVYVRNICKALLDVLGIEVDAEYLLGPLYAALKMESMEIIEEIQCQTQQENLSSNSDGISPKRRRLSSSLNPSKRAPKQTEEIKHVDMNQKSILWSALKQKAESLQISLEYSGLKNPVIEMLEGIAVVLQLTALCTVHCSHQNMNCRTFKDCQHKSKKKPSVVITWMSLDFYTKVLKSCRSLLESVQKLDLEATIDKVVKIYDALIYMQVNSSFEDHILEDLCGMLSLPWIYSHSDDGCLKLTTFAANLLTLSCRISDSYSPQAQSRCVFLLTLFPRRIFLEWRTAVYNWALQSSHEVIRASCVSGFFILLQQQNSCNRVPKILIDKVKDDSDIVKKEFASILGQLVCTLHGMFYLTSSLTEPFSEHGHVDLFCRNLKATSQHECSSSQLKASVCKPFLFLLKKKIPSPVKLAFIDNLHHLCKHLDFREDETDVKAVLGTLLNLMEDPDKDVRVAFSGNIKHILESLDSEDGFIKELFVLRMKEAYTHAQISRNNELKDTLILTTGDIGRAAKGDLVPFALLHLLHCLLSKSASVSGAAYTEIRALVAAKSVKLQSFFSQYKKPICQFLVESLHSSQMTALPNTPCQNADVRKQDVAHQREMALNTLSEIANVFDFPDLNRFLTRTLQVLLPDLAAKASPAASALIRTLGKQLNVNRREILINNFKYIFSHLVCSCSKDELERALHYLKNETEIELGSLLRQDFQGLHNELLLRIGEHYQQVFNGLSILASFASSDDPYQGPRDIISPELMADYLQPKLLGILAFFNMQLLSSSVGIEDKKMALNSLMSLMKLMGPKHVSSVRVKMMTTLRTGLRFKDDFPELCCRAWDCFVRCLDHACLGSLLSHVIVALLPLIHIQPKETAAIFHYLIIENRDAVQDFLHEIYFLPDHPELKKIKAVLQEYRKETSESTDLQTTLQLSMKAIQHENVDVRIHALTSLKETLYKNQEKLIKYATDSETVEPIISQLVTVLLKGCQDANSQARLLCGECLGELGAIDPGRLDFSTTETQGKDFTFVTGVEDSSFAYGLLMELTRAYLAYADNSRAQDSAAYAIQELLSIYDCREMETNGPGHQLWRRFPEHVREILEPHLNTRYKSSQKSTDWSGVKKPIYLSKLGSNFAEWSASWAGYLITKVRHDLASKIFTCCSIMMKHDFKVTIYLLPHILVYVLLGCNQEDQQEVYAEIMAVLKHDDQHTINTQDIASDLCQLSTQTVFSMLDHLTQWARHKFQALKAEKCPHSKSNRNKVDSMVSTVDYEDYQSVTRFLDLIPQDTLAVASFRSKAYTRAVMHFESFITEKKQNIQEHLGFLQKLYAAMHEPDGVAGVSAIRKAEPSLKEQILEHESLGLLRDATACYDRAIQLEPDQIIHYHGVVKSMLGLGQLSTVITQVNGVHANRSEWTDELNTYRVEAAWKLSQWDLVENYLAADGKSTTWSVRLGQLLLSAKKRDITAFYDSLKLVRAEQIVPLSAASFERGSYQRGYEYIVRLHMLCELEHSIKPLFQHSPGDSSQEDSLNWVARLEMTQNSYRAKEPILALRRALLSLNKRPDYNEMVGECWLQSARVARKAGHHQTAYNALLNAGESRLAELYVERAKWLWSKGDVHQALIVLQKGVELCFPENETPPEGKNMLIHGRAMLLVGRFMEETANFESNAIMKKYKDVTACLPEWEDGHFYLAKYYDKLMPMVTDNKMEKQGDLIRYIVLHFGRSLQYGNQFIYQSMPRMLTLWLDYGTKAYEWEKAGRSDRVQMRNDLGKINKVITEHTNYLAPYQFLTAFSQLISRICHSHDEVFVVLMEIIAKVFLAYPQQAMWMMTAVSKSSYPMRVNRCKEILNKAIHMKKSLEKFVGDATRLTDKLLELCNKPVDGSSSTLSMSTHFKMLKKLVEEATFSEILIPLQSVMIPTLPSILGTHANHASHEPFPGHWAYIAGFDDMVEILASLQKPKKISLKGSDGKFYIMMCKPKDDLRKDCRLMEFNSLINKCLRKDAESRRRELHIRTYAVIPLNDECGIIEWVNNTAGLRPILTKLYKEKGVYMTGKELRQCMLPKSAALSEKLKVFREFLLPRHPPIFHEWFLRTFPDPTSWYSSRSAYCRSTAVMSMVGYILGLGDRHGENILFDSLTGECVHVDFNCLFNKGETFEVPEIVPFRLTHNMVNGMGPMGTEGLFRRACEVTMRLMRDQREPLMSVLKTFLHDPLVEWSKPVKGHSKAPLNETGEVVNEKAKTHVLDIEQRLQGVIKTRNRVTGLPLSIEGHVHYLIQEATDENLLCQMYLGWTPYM
ATR/ATRIP(h), sequence (Q8WXE1 whole entry partner): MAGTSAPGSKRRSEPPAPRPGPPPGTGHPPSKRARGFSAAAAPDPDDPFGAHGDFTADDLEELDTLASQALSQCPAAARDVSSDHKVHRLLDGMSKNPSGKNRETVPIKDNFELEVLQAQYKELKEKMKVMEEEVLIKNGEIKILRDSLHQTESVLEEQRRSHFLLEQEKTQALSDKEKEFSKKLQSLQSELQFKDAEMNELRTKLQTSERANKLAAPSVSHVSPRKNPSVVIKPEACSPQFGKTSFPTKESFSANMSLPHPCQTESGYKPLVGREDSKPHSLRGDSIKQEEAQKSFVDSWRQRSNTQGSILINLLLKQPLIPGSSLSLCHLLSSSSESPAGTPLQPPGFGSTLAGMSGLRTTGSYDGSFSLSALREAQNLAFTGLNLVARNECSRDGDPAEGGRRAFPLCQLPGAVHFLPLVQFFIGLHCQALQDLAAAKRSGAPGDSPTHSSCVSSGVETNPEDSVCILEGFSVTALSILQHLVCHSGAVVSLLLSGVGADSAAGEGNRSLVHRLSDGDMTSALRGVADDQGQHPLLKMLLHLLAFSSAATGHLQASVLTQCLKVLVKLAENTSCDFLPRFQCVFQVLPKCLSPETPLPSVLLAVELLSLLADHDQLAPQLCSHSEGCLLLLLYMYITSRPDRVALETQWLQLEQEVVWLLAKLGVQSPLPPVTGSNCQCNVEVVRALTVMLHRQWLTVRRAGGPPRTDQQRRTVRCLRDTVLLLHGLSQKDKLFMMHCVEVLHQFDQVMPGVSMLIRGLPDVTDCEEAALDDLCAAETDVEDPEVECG
In a further assay the target is CaMKK2(h) (Homo sapiens, UniProt Q96RR4). Put plainly: Kinase Profiler. The class given is biochemical.
Another assay has as its target cKit(D816V)(h) (Homo sapiens, UniProt P10721, D816V). Put plainly: Kinase Profiler. The class given is biochemical.
A further assay deals with EphA3(h) (Homo sapiens, UniProt P29320). Put plainly: Kinase Profiler. The class given is biochemical.
EphA3(h), sequence (P29320 21-983): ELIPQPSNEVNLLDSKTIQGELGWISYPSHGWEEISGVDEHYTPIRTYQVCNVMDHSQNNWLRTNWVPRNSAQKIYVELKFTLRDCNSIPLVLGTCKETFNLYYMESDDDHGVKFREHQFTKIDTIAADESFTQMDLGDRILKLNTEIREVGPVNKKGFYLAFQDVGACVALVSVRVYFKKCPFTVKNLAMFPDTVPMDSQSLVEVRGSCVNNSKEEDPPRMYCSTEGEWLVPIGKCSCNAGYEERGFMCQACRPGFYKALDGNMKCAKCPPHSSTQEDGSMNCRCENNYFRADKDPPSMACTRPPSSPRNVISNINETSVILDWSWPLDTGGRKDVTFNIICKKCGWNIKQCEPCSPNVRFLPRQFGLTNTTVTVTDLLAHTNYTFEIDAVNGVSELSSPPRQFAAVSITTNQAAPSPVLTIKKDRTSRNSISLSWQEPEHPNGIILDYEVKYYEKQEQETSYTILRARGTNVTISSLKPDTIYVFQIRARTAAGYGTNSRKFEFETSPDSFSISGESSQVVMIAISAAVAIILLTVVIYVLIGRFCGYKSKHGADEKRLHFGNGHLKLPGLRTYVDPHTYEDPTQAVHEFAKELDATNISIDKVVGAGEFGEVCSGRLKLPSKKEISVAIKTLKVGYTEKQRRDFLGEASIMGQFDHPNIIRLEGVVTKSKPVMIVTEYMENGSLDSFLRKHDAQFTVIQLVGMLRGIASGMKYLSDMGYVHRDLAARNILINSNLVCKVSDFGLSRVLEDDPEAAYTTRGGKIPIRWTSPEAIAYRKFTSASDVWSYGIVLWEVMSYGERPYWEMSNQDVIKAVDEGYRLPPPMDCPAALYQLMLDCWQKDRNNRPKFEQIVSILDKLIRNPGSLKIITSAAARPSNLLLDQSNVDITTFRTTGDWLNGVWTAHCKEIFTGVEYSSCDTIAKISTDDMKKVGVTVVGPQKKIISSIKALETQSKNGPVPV
The next assay concerns the target eEF-2K(h) (Homo sapiens, UniProt O00418). Put plainly: Kinase Profiler. The class given is biochemical.
The subject of the next assay is Phosphodiesterase PDE4. Put plainly: Safety screen. The class given is biochemical, human.
A further assay addresses ROCK-I(h) (Homo sapiens, UniProt Q13464). Put plainly: Kinase Profiler. The class given is biochemical.
Another assay concerns the target STK39(h) (Homo sapiens, UniProt Q9UEW8). Put plainly: Kinase Profiler. The class given is biochemical.

Experimental for ATR/ATRIP(h): (§1) The kinase profiler was performed by the company Eurofins (Discovery, Panlab and Cerep).
Experimental for Abl(h): as §1
Experimental for CDK3/cyclinE(h): (§2) Blood cell counts, kinase profiler, safety screen, bacterial cytotoxicity, Ames, micronucleus assays were performed by the company Eurofins (France). The kinase profiler was performed by the company Eurofins (Discovery, Panlab and Cerep).
Experimental for CHK2(R145W)(h): as §1
Experimental for CaMKK2(h): as §1
Experimental for EphA3(h): as §2
Experimental for Phosphodiesterase PDE4: Blood cell counts, kinase profiler, safety screen, bacterial cytotoxicity, Ames, micronucleus assays were performed by the company Eurofins (France).
Experimental for ROCK-I(h): as §2
Experimental for STK39(h): as §1
Experimental for ULK3(h): as §2
Experimental for Wee1(h): as §1
Experimental for cKit(D816V)(h): as §2
Experimental for eEF-2K(h): as §1

Turning to `COc1ccc(OC)c(NS(=O)(=O)c2ccc(NC(=O)CCSc3ccc(C)cc3)cc2)c1` [Compound A41], in the assay with NIH/3T3 cell adhesion, the cell adhesion entry is listed as “efficiently inhibited both functions”. Also, the “Activity(%)” value on Wee1(h) is on record as 112%; at CHK2(R145W)(h), 92%; at ULK3(h), 97%; at Abl(h) it was 90%; at CDK3/cyclinE(h), 77%; at ATR/ATRIP(h) it was 93%. For the same compound, the “Activity(%)” value at CaMKK2(h) stood at 110%; at cKit(D816V)(h) it was 88%; on EphA3(h), 139%; at eEF-2K(h), 97%; on ROCK-I(h) it was 101%; on STK39(h) it was 91%. In the assay on Phosphodiesterase PDE4, the “% inh.” value is 4%.

The record behind these values is publication PMC12281424, “A Rac-specific competitive inhibitor of guanine nucleotide binding reduces metastasis in triple-negative breast cancer” (Cell Reports Medicine, 2025).
